Test results as given in patent publication US7452997B2 (priority 2004, dated 2008).
Where two headings read alike, the source gives them in different places.

Key:
human CB1 receptor = biological target: T1, human CB1 receptor (Homo sapiens, UniProt P21554); experiment: biochemical; assay type: binding
T1 construct: expressed in transfected cells; host or cells: SK-N-MC cells, stably transfected with pcDNA3 CB-1 (human); semi-purified membrane pellet
Procedure: (§1) Binding Assay for CB1 or CB2 Agonists or Inverse Agonists
(§2) The human CB1 and CB2 receptors were stably expressed in SK-N-MC cells transfected with pcDNA3 CB-1 (human) or pcDNA3 CB-2 (human). The cells were grown in T-180 cell culture flasks under standard cell culture conditions at 37° C. in a 5% CO2 atmosphere. The cells were harvested by trysinization and homogenized in a homogenization buffer (10 mM Tris, 0.2 mM MgCl2, 5 mM KCl, with protease inhibitors aprotinin, leupeptin, pepstatin A and bacitracin) and centrifuged (2000 g). The supernatant was then centrifuged in 2M sucrose (31,300 g) to produce a semi-purified membrane pellet. The pellet was resuspended in homogenization and store at −80° C.
On the day of the assay, the pellet was thawed on ice and diluted in assay buffer (50 mM Tris-HCl, 5 mM MgCl2, 2.5 mM EDTA, 0.5 mg/mL fatty acid free bovine serum albumin, pH 7.5). […] The plate was covered and incubated for 90 minutes at 30° C. The contents were then aspirated onto a Packard […] GF/C filter bottom plate prewet with 0.5% polyethyleneimine. The wells of the polypropylene plate were rinsed and aspirated seven times with a 0.9% saline-0.5% TWEEN 20 solution. The […] plate was dried, a scintillation cocktail was added to each well and the counts representing binding were quantitated in a TOPCOUNT scintillation counter.
(§3) The IC50 binding values for compounds tested were calculated by linear regression and were obtained from studies in which varying compound concentrations were used.

human CB2 receptor = human CB2 receptor (Homo sapiens, UniProt P34972); experiment: Binding assay, cannabinoid CB2 receptor ([3H]-CP-55,940 displacement); settings: SK-N-MC cell membranes, radioligand CP-55,940 0.2 nM
Chain of human CB2 receptor (P34972 whole entry): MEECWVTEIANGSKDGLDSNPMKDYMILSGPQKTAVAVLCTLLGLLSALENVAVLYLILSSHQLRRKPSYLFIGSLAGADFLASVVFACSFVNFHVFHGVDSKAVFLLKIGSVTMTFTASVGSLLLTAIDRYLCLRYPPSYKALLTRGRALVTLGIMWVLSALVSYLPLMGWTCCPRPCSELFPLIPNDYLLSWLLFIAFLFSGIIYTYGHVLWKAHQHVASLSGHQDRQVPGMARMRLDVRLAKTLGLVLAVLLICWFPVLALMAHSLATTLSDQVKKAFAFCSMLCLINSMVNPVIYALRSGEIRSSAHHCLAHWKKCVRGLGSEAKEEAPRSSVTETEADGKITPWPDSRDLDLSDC
Procedure: as §1, §2
On the day of the assay, the pellet was thawed on ice and diluted in assay buffer (50 mM Tris-HCl, 5 mM MgCl2, 2.5 mM EDTA, 0.5 mg/mL fatty acid free bovine serum albumin, pH 7.5). The diluted membrane was added with buffer, test compound or standard and the radioligand [H]^3+-CP-55,940_(0.2 nM) to the wells of a 96-well polypropylene plate. Non-specific binding was measured in wells containing 10 uM WIN 55,212. The plate was covered and incubated for 90 minutes at 30° C. The contents were then aspirated onto a Packard UNIFILTER GF/C filter bottom plate prewet with 0.5% polyethyleneimine. The wells of the polypropylene plate were rinsed and aspirated seven times with a 0.9% saline-0.5% TWEEN 20 solution. The UNIFILTER plate was dried, a scintillation cocktail was added to each well and the counts representing binding were quantitated in a TOPCOUNT scintillation counter.
as §3

[1] = Cannabinoid CB2 Receptor Binding IC50, human CB2 receptor
[2] = human CB2 receptor, read-out: Cannabinoid CB2 Receptor Binding IC50

T1 sequence (P21554 whole entry): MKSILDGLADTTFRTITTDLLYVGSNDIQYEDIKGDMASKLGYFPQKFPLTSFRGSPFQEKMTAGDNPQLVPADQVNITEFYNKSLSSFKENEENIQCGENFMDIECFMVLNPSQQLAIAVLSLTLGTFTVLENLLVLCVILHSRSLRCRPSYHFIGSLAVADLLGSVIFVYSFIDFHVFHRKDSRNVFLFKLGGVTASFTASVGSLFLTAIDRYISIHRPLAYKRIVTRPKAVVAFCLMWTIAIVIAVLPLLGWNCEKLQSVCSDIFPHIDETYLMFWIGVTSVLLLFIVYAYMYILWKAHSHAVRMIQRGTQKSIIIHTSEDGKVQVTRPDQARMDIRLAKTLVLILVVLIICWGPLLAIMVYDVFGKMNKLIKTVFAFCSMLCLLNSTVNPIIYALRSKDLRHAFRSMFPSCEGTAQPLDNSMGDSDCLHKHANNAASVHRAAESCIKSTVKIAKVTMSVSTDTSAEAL

CCOC(=O)C1CCc2c(c(C(=O)NC(C)C34CC5CC(CC(C5)C3)C4)nn2C2CCCCC2)C1 (stereo not drawn) [Cpd 132]
IC50 (human CB1 receptor): 2900 nM
IC50 (human CB2 receptor; [1]): 25.5 nM

COC(=O)C(Cc1ccc(O)cc1)NC(=O)c1nn(-c2ccc(OC)cc2)c2c1CCCC2 (stereo not drawn) [compound 5]
IC50 (human CB1 receptor): 6800 nM
IC50 (human CB2 receptor; [1]): 291 nM

CC(c1ccccc1)n1nc(C(=O)NC2C3CC4CC(C3)CC2C4)c2c1CCCC2 (stereo not drawn) [compound 243]
IC50 (human CB1 receptor): 130 nM
IC50 (human CB2 receptor; [1]): 4 nM

O=C(Nc1nn(C2CCCCC2)c2c1CCCC2)C1CCCCC1 [compound 180]
IC50 (human CB1 receptor): 700 nM
IC50 (human CB2 receptor; [1]): 1700 nM

COC(=O)C(Cc1c[nH]c2ccccc12)NC(=O)c1nn(Cc2ccccc2)c2c1CCCC2 (stereo not drawn) [compound 83]
IC50 (human CB1 receptor): 38 nM
IC50 (human CB2 receptor; [1]): 20 nM

CC(NC(=O)Nc1nn(C2CCCCC2)c2c1CCCC2)C1CCCCC1 (stereo not drawn) [compound 334]
IC50 (human CB1 receptor): 12500 nM
IC50 (human CB2 receptor; [1]): 980 nM

O=C(NC(Cc1ccc(OCc2ccccc2)cc1)C(=O)O)c1nn(C2CCCCC2)c2c1CCCC2 (stereo not drawn) [compound 78]
IC50 (human CB1 receptor): 4600 nM
IC50 (human CB2 receptor; [1]): 1210 nM

CCOC(=O)[C@H]1C2CCC(C2)[C@H]1NC(=O)c1nn(C2CCCCC2)c2c1CCCC2O (stereo partly drawn) [Cpd 164, (2S,3R)-3-[(1-cyclohexyl-7-hydroxy-4,5,6,7-tetrahydro-1H-indazole-3-carbonyl)-amino]-bicyclo[2.2.1]heptane-2-carboxylic acid ethyl ester]
IC50 (human CB1 receptor): 6010 nM
IC50 (human CB2 receptor; [1]): 490 nM

CCOC(=O)[C@@H]1CCCC[C@H]1NC(=O)c1nn(C2CCCCC2)c2c1CCCC2 [compound 269]
IC50 (human CB1 receptor): 191 nM
IC50 (human CB2 receptor; [1]): 38.6 nM

CC(CC1CCCCC1)NC(=O)c1nn(C2CCCCC2)c2c1CCCC2 (stereo not drawn) [compound 330]
IC50 (human CB1 receptor): 1900 nM
IC50 (human CB2 receptor; [1]): 30 nM

O=C(CNC(=O)c1nn(C2CCCCC2)c2c1CCCC2)c1ccc(Br)cc1 [compound 177]
IC50 (human CB1 receptor): 10500 nM
IC50 (human CB2 receptor; [1]): 2400 nM

CC(NC(=O)c1nn(C2CCCCC2)c2c1CCCC2)C1CCCC1 (stereo not drawn) [compound 193]
IC50 (human CB1 receptor): 120 nM
IC50 (human CB2 receptor; [1]): 5 nM

CCOC(=O)[C@H]1C2CCC(C2)[C@H]1NC(=O)CCc1nn(C2CCCCC2)c2c1CCCC2 (stereo partly drawn) [compound 54]
IC50 (human CB1 receptor): 11400 nM
IC50 (human CB2 receptor; [1]): 6050 nM

CC12CCC(C1)C(C)(C)C2NC(=O)c1nn(Cc2ccccc2)c2c1CCCC2c1ccccc1 (stereo not drawn) [compound 265]
IC50 (human CB1 receptor): 96 nM
IC50 (human CB2 receptor; [1]): 41 nM

CC(NC(=O)c1nn(Cc2ccccc2)c2c1CCCC2)C12CC3CC(CC(C3)C1)C2 (stereo not drawn) [compound 39]
IC50 (human CB1 receptor): 9 nM
IC50 (human CB2 receptor; [1]): 6 nM

COC(=O)C(Cc1ccc(O)c(O)c1)NC(=O)c1nn(Cc2ccccc2)c2c1CCCC2 (stereo not drawn) [compound 82]
IC50 (human CB1 receptor): 700 nM
IC50 (human CB2 receptor; [1]): 200 nM

CC(NC(=O)c1nn(C2CCCCC2)c2c1CCCC2)C1CCCCCC1 (stereo not drawn) [compound 246]
IC50 (human CB1 receptor): 2270 nM
IC50 (human CB2 receptor; [1]): 90 nM

CCOC(=O)C1CCCc2c1c(C(=O)NC(C)C13CC4CC(CC(C4)C1)C3)nn2C1CCCCC1 (stereo not drawn) [compound 72]
IC50 (human CB1 receptor): 8400 nM
IC50 (human CB2 receptor; [1]): 4100 nM

COC(=O)NC1CCc2c(c(C(=O)NC3C4CC5CC(C4)CC3C5)nn2C2CCCCC2)C1 (stereo not drawn) [compound 88]
IC50 (human CB1 receptor): 2400 nM
IC50 (human CB2 receptor; [1]): 87 nM

CCOC(=O)C1CCc2c(c(C(=O)NCC34CC5CC(CC(C5)C3)C4)nn2-c2ccccc2)C1 (stereo not drawn) [compound 117]
IC50 (human CB2 receptor; [1]): 370 nM

CC12CCC(C1)C(C)(C)C2NC(=O)c1nn(C2CCCCC2)c2c1CC(C(N)=O)CC2 (stereo not drawn) [compound 170]
IC50 (human CB2 receptor; [1]): 300 nM

CC(C)(C)C1CCc2c(c(C(=O)NC3C4(C)CCC(C4)C3(C)C)nn2-c2ccccc2)C1 (stereo not drawn) [compound 111]
IC50 (human CB2 receptor; [1]): 170 nM

CC(C)(C)CC(C)(C)NC(=O)C1CCc2c(c(C(=O)NC3C4CC5CC(C4)CC3C5)nn2C2CCCCC2)C1 (stereo not drawn) [Cpd 228, 1-cyclohexyl-4,5,6,7-tetrahydro-1H-indazole-3,5-dicarboxylic acid 3-adamantan-2-ylamide 5-[(1,1,3,3-tetramethyl-butyl)-amide]]
IC50 (human CB2 receptor; [1]): 250 nM

O=C(NC1C2CC3CC(C2)CC1C3)c1nn(Cc2ccccc2)c2c1CC(C(=O)O)CC2 (stereo not drawn) [compound 239]
IC50 (human CB2 receptor; [1]): 300 nM

C[C@@H](NC(=O)C=Cc1nn(Cc2ccccc2)c2c1CCCC2)c1ccccc1 [Cpd 306, 3-(1-benzyl-4,5,6,7-tetrahydro-1H-indazol-3-yl)-N-[(1R)-1-phenyl-ethyl]-acrylamide]
IC50 (human CB2 receptor; [1]): 1800 nM

O=C(CNC(=O)c1nn(C2CCCCC2)c2c1CCCC2)c1ccccc1 [compound 188]
IC50 (human CB2 receptor; [1]): 5100 nM

O=C(NNC1CCCCCCC1)c1nn(-c2ccc(F)cc2)c2c1CCCC2 [compound 299]
IC50 (human CB2 receptor; [1]): 5520 nM

CCOC(=O)c1c(NC(=O)c2nn(C3CCCCC3)c3c2CCCC3)sc2c1CCC2 [compound 56]
IC50 (human CB2 receptor; [1]): 20000 nM

CC12CCC(C1)C(C)(C)C2NC(=O)c1nn(-c2ccccn2)c2c1CCCC2 (stereo not drawn) [compound 160]
IC50 (human CB2 receptor; [1]): 3500 nM

COc1ccc(C(=O)CNC(=O)c2nn(C3CCCCC3)c3c2CCCC3)cc1 [Cpd 176]
IC50 (human CB2 receptor; [1]): 4000 nM

CCOC(=O)c1c(NC(=O)c2nn(C3CCCCC3)c3c2CCCC3)sc2c1CCCCC2 [compound 55]
IC50 (human CB2 receptor; [1]): 7900 nM

O=C(NC1CN2CCC1CC2)c1nn(C2CCCCC2)c2c1CCCC2 (stereo not drawn) [compound 225]
IC50 (human CB2 receptor; [2]): 650 nM

C[C@@H](NC(=O)c1nn(C2CCCCC2)c2c1CC(NC(=O)OC(C)(C)C)CC2)C1CCCCC1 (stereo partly drawn) [compound 286]
IC50 (human CB2 receptor; [1]): 2700 nM

COC(=O)C(Cc1ccc(OCc2ccccc2)cc1)NC(=O)c1c2c(nn1-c1ccc(OC)cc1)CCCC2 (stereo not drawn) [compound 4]
IC50 (human CB2 receptor; [2]): 3690 nM

CCN(C(=O)c1c2c(nn1-c1ccc(OC)cc1)CCCC2)c1ccccc1OC [compound 121]
IC50 (human CB2 receptor; [2]): 6270 nM

O=C(NC1C2CCC(C2)C1C(=O)O)c1nn(C2CCCCC2)c2c1CC(C(=O)O)CC2 (stereo not drawn) [compound 138]
IC50 (human CB2 receptor; [2]): 11800 nM

CCOC(=O)[C@H]1C2CCC(C2)[C@H]1NC(=O)c1nn(-c2ccc(F)cc2)c2c1CCCC2CC (stereo partly drawn) [compound 191]
IC50 (human CB2 receptor; [1]): 190 nM

CN1C2CCC1CC(NC(=O)c1nn(C3CCCCC3)c3c1CCCC3)C2 (stereo not drawn) [compound 46]
IC50 (human CB2 receptor; [1]): 9200 nM

O=C(Nc1nn(C2CCCCC2)c2c1CCCC2)NC12CC3CC(CC(C3)C1)C2 [Cpd 182, 1-adamantan-1-yl-3-(1-cyclohexyl-4,5,6,7-tetrahydro-1H-indazol-3-yl)-urea]
IC50 (human CB2 receptor; [1]): 28 nM

COc1ccc(-n2nc3c(c2C(=O)NCCc2ccc(N)cc2)CCCC3)cc1 [compound 8]
IC50 (human CB2 receptor; [2]): 21200 nM

CC(C)(C)OC(=O)NC1CCc2c(c(C(=O)NC3C4(C)CCC(C4)C3(C)C)nn2C2CCCCC2)C1 (stereo not drawn) [Cpd 86, [1-cyclohexyl-3-(1,3,3-trimethyl-bicyclo[2.2.1]hept-2-ylcarbamoyl)-4,5,6,7-tetrahydro-1H-indazol-5-yl]-carbamic acid tert-butyl ester]
IC50 (human CB2 receptor; [1]): 275 nM

CCOC(=O)C1CCc2c(c(C(=O)NC3C4CC5CC(C4)CC3C5)nn2-c2ccccc2)C1 (stereo not drawn) [compound 115]
IC50 (human CB2 receptor; [1]): 180 nM

O=C(NCC(O)c1ccc(Br)cc1)c1nn(C2CCCCC2)c2c1CCCC2 (stereo not drawn) [compound 240]
IC50 (human CB2 receptor; [1]): 1700 nM

CCOC(=O)C1CCc2c(c(C(=O)NC34CC5CC(CC(C5)C3)C4)nn2-c2ccccc2)C1 (stereo not drawn) [compound 118]
IC50 (human CB2 receptor; [1]): 400 nM

O=C(Nc1nn(C2CCCCC2)c2c1CCCC2)c1ccccc1 [compound 186]
IC50 (human CB2 receptor; [2]): 2290 nM

CC(NC(=O)c1nn(Cc2ccccc2)c2c1CC(C(=O)O)CC2)C12CC3CC(CC(C3)C1)C2 (stereo not drawn) [compound 166]
IC50 (human CB2 receptor; [1]): 1700 nM

O=C(Nc1nn(C2CCCCC2)c2c1CCCC2)c1ccc2ccccc2c1 [Cpd 178, naphthalene-2-carboxylic acid (1-cyclohexyl-4,5,6,7-tetrahydro-1H-indazol-3-yl)-amide]
IC50 (human CB2 receptor; [1]): 2900 nM
